Patent US8497278B2, “Imidazo[1,2-a]pyridine compounds” (priority 2008, dated 2013)

Assays:
[1] = tested on: central benzodiazepine receptors; assay: Central benzodiazepine receptor binding (test of Speth et al.); conditions: 1000 nM of the compound
In short: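 Radioligand binding by the Speth et al. method. Specific binding is total minus nonspecific binding, the latter measured with excess unlabelled ligand. Compounds screened at 1.0E-09, 1.0E-07 and 1.0E-05 M in single determination; values given as percent inhibition at 1000 nM compound.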

[2] = target: T1, α1 subtype containing GABA-A receptors (Homo sapiens, UniProt P14867+P18507); assay: Two-electrode voltage clamp electrophysiology in Xenopus oocytes, potentiation of GABA EC20 response, α1; format: cell-based; conditions: 100 nM compound; for activation at 0.1 µM: read-out: Percentage of potentiation alpha1
T1 construct: expressed in transfected cells; host or cells: Xenopus laevis oocytes, cRNA injected
T1 sequence (P14867 28-456): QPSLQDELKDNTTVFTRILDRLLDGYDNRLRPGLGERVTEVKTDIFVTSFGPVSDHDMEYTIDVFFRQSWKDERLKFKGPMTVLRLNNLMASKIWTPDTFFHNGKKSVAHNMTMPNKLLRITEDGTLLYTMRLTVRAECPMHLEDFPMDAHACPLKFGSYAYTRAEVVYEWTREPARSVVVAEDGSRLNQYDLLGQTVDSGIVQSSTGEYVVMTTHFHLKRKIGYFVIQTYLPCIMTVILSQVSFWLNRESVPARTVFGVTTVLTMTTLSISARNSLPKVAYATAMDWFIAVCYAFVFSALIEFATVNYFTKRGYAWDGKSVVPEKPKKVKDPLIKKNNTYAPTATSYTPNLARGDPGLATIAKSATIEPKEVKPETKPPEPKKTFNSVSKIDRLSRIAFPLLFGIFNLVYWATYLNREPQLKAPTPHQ
T1 sequence (P28472 26-473 partner): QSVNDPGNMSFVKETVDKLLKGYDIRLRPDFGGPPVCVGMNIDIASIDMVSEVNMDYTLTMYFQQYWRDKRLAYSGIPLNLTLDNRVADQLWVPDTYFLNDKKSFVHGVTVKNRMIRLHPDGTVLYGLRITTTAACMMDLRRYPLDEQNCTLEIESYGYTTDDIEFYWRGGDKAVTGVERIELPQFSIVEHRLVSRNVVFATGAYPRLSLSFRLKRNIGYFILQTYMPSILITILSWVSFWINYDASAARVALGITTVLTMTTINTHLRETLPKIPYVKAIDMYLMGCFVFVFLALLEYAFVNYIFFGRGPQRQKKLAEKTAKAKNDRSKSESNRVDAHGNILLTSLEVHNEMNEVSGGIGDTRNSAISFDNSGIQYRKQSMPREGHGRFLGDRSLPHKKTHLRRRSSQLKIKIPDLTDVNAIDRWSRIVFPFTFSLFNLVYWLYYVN
T1 sequence (P18507 40-475): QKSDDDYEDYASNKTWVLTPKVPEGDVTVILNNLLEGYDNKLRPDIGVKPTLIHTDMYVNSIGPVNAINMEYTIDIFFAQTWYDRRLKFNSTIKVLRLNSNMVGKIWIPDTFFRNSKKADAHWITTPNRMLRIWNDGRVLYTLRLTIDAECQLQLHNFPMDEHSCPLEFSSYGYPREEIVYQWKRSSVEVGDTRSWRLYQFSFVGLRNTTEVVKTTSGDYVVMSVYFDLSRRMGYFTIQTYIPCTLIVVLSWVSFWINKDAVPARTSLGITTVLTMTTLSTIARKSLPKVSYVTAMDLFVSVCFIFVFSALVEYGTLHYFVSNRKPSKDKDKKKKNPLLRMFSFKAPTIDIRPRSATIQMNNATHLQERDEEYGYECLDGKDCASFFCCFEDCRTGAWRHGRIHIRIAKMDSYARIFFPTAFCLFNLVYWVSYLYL
Method: (§1) Electrophysiology protocol: Oocytes were prepared from adult female Xenopus laevis frogs. cRNA encoding human α1, α2, α3, α5, β3 and γ2L GABAA receptor subunits was injected into the cytoplasm of stage 5 or 6 oocytes using the Robocyte Robot (Multi Channel Systems, Reutlingen, Germany). Two-electrode voltage clamp recordings were made in 96-well plates using the Robocyte Robot. Oocytes were impaled using recording heads with two glass electrodes containing 1.5 M potassium acetate and 0.5 M KCl and held at a membrane potential of −80 mV. Oocytes were continually perfused with a ND96 solution (96 mM NaCl, 2 mM KCl, 0.1 mM CaCl2, and 5 mM HEPES, pH 7.5) using a Gilson 222 XL Liquid Handler and Gilson Minipuls 3 Peristaltic Pump (Gilson Medical Electronics, Middleton, Wis., USA). The protocol consisted of three 20-s applications of GABA that gave a 20% of the maximum response (EC20: 60 μM) to allow for headroom to determine a baseline GABA response. To assess the potentiation, oocytes were first exposed to a single 1 μM chlordiazepoxide (CDP) as a potentiation standard. Oocytes with insufficient expression levels (currents below threshold) or insufficient γ2L subunit incorporation (judged by rapid desensitization upon GABA application, or by insufficient potentiation by CDP) were not included in analysis. Following this control application, a given oocyte was exposed to test compounds at 100 nM concentrations. Only one concentration of one compound was tested per oocyte. […] One skilled in the art will recognize that subtypes contribute to the effects of GABA-A modulators. Such that compounds favoring different subtypes can have different therapeutic effects. The magnitude of modulation, for example, partial modulators can influence the effects in vivo. “++” indicates a greater modulation that “+” so that at any given subtype “++” inducates a greater amount of modulation for that subtype. In some embodiments, modulation favoring alpha 1 relative to alpha2 and/or alpha 3 can have sedative hypnotic effects. In other embodiments, compounds with reduced selectivity of alpha 1 can express anxiolytic effects with less sedation. Compounds with selectivity for alpha 5 can have memory/cognition enhancing effects.

[3] = target: T2, α2 subtype containing GABA-A receptors (Homo sapiens, UniProt P18507+P47869); assay: Two-electrode voltage clamp electrophysiology in Xenopus oocytes, potentiation of GABA EC20 response, α2; format: cell-based; conditions: 100 nM compound; for activation at 0.1 µM: read-out: Percentage of potentiation alpha2
T2 construct: expressed in transfected cells; host or cells: Xenopus laevis oocytes, cRNA injected
T2 sequence (P47869 29-451): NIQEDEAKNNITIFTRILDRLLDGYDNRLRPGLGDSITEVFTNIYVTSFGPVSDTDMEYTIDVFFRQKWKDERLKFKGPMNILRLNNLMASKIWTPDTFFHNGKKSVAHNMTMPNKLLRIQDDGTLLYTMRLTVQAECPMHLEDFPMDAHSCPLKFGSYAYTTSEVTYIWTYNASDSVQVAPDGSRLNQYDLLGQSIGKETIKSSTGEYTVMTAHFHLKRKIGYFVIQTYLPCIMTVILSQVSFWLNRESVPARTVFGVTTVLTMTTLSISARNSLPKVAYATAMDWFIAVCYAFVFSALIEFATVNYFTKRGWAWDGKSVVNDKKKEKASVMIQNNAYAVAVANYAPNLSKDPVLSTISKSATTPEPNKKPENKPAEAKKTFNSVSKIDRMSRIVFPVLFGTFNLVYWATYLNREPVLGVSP
T2 sequence (P28472 26-473 partner): as the sequence (P28472 26-473 partner) above
T2 sequence (P18507 40-475): as the sequence (P18507 40-475) above
Method: as §1

Row | SMILES | % Inhibition at 1000 nM for CBZD [1] | Percentage of potentiation alpha1 [2] | Percentage of potentiation alpha2 [3] | activation at 0.1 µM [2] [%] | activation at 0.1 µM [3] [%]
1 | Cc1ccc(-c2nc3ccc(C)cn3c2Cn2nc(C)cc2C)cc1 [Compound 9, 6-Methyl-3-((3,5-dimethyl-1H-pyrazol-1-yl)methyl)-2-p-tolylH-imidazo[1,2-a]pyridine] | ++ (percentage of inhibition of central BZD site binding is greater than 80% in the presence of 1000 nM of the compound) | + (percentage of potentiation is greater than or equal to 10% but less than 50% in the presence of 100 nM of the compound) | + (percentage of potentiation is greater than or equal to 10% but less than 50% in the presence of 100 nM of the compound) |  | 
2 | Cc1ccc(-c2nc3ccc(C)cn3c2CNc2nccs2)cc1 [Compound 150, N-((6-methyl-2-p-tolylH-imidazo[1,2-a]pyridin-3-yl)methyl)thiazole-2-amine] | ++ (percentage of inhibition of central BZD site binding is greater than 80% in the presence of 1000 nM of the compound) | 0 (percentage of potentiation is between about 10% to about −10%) | + (percentage of potentiation is greater than or equal to 10% but less than 50% in the presence of 100 nM of the compound) |  | 
3 | Cc1ccc(-c2nc3ccc(C)cn3c2Cn2ccnn2)cc1 [Compound 6, 3-((1H-1,2,3-triazol-1-yl)methyl)-6-methyl-2-p-tolylH-imidazo[1,2-a]pyridine] | ++ (percentage of inhibition of central BZD site binding is greater than 80% in the presence of 1000 nM of the compound) | + (percentage of potentiation is greater than or equal to 10% but less than 50% in the presence of 100 nM of the compound) | + (percentage of potentiation is greater than or equal to 10% but less than 50% in the presence of 100 nM of the compound) |  | 
4 | Cc1cc(Cl)nc(NCc2c(-c3ccc(Cl)cc3)nc3ccccn23)n1 [Compound 159, 4-chloro-N-((2-(4-chlorophenyl)imidazo[1,2-a]pyridin-3-yl)methyl)-6-methylpyrimidin-2-amine] | ++ (percentage of inhibition of central BZD site binding is greater than 80% in the presence of 1000 nM of the compound) |  |  | 10 to 50 | 10 to 50
5 | CN(CCO)c1cncc(Cc2c(-c3ccc(Cl)cc3)nc3ccccn23)n1 [Compound 192, 2-((6-((2-(4-chlorophenyl)imidazo[1,2-a]pyridin-3-yl)methyl)pyrazin-2-yl)(methyl)amino)ethanol] | ++ (percentage of inhibition of central BZD site binding is greater than 80% in the presence of 1000 nM of the compound) |  |  | 10 to 50 | 10 to 50
6 | O=c1ccn(Cc2c(-c3ccc(Cl)cc3)nc3ccccn23)c(=O)[nH]1 [Compound 123, 1-((2-(4-chlorophenyl)imidazo[1,2-a]pyridin-3-yl)methyl)pyrimidine-2,4(1H,3H)-dione] | ++ (percentage of inhibition of central BZD site binding is greater than 80% in the presence of 1000 nM of the compound) |  |  | 10 to 50 | 10 to 50
7 | Cc1ccc(-c2nc3ccc(C)cn3c2Cn2ccnc2C)cc1 [Compound 2, 6-Methyl-3-((2-methyl-1H-imidazol-1-yl)methyl)-2-p-tolylH-imidazo[1,2-a]pyridine] | ++ (percentage of inhibition of central BZD site binding is greater than 80% in the presence of 1000 nM of the compound) | + (percentage of potentiation is greater than or equal to 10% but less than 50% in the presence of 100 nM of the compound) | + (percentage of potentiation is greater than or equal to 10% but less than 50% in the presence of 100 nM of the compound) |  | 
8 | Brc1ccc(-c2nc3ccccn3c2Cn2cncn2)cc1 [Compound 64, 3-((1H-1,2,4-triazol-1-yl)methyl)-2-(4-bromophenyl)H-imidazo[1,2-a]pyridine] | ++ (percentage of inhibition of central BZD site binding is greater than 80% in the presence of 1000 nM of the compound) | + (percentage of potentiation is greater than or equal to 10% but less than 50% in the presence of 100 nM of the compound) | + (percentage of potentiation is greater than or equal to 10% but less than 50% in the presence of 100 nM of the compound) |  | 
9 | Cn1ncnc1Cc1c(-c2ccc(Cl)cc2)nc2ccccn12 [Compound 207, 2-(4-Chlorophenyl)-3-((1-methyl-1H-1,2,4-triazol-5-yl)methyl)imidazo[1,2-a]pyridine] | ++ (percentage of inhibition of central BZD site binding is greater than 80% in the presence of 1000 nM of the compound) |  |  | 10 to 50 | 10 to 50
10 | Clc1ccc(-c2nc3ccccn3c2Cn2nc3ccccc3n2)cc1 [Compound 43, 2-((2-(4-chlorophenyl)H-imidazo[1,2-a]pyridin-3-yl)methyl)-2H-benzo[d][1,2,3]triazole] | ++ (percentage of inhibition of central BZD site binding is greater than 80% in the presence of 1000 nM of the compound) | 0 (percentage of potentiation is between about 10% to about −10%) | + (percentage of potentiation is greater than or equal to 10% but less than 50% in the presence of 100 nM of the compound) |  | 
11 | CN1CCN(C2=CC(=O)N(Cc3c(-c4ccc(Cl)cc4)nc4ccccn34)C2)CC1 [Compound 238, 1-((2-(4-chlorophenyl)imidazo[1,2-a]pyridin-3-yl)methyl)-4-(4-methylpiperazin-1-yl)-1H-pyrrol-2(5H)-one] | ++ (percentage of inhibition of central BZD site binding is greater than 80% in the presence of 1000 nM of the compound) |  |  | 10 to 50 | 10 to 50
12 | CC1(O)CCN(c2ccnc(NCc3c(-c4ccccc4)nc4ccc(Cl)cn34)n2)CC1 [Compound 187, 1-(2-((6-chloro-2-phenylimidazo[1,2-a]pyridin-3-yl)methylamino)pyrimidin-4-yl)-4-methylpiperidin-4-ol] | ++ (percentage of inhibition of central BZD site binding is greater than 80% in the presence of 1000 nM of the compound) |  |  | ≤ -10 | -10 to 10
13 | Cc1nnc(Cc2c(-c3ccc(Cl)cc3)nc3ccccn23)[nH]1 [Compound 233, 2-(4-chlorophenyl)-3-((5-methyl-4H-1,2,4-triazol-3-yl)methyl)imidazo[1,2-a]pyridine] | ++ (percentage of inhibition of central BZD site binding is greater than 80% in the presence of 1000 nM of the compound) |  |  | 10 to 50 | ≥ 50
14 | Fc1ccc2nc(-c3ccc(Cl)cc3)c(Cn3ccnn3)n2c1 [Compound 57, 3-((1H-1,2,3-triazol-1-yl)methyl)-2-(4-chlorophenyl)-6-fluoroH-imidazo[1,2-a]pyridine] | ++ (percentage of inhibition of central BZD site binding is greater than 80% in the presence of 1000 nM of the compound) | + (percentage of potentiation is greater than or equal to 10% but less than 50% in the presence of 100 nM of the compound) | ++ (percentage of potentiation is greater than or equal to 50% in the presence of 100 nM of the compound) |  | 
15 | Clc1ccc2nc(-c3ccccc3)c(Cn3nc4ccccc4n3)n2c1 [Compound 47, 2-((6-chloro-2-phenylH-imidazo[1,2-a]pyridin-3-yl)methyl)-2H-benzo[d][1,2,3]triazole] | + (percentage of inhibition of central BZD site binding is greater than 50% but less than 80% in the presence of 1000 nM of the compound) | 0 (percentage of potentiation is between about 10% to about −10%) | 0 (percentage of potentiation is between about 10% to about −10%) |  | 
16 | Fc1ccc2nc(-c3ccc(Cl)cc3)c(Cn3nc4ccccc4n3)n2c1 [Compound 59, 2-((2-(4-chlorophenyl)-6-fluoroH-imidazo[1,2-a]pyridin-3-yl)methyl)-2H-benzo[d][1,2,3]triazole] | + (percentage of inhibition of central BZD site binding is greater than 50% but less than 80% in the presence of 1000 nM of the compound) | 0 (percentage of potentiation is between about 10% to about −10%) | 0 (percentage of potentiation is between about 10% to about −10%) |  | 
